Test results taken from patent US9341616B2, “Sweet taste receptor chimeric proteins and use thereof” (AJINOMOTO CO., INC., priority 2014, dated 2016).
Residues, ends and D or L forms follow the SMILES beside them.

What follows are molecules tested against h-mT1R2-471/T1R3mosaicA (UniProt Q8TE23+Q925D8, A12W/A31M/A537S/A558R/A564V/A568V/A570T/A588V/A645S/A649T/A658V/A698V/A702T/A782V/A793V/A807V/C582S/C678S/D480N/E16H/E530V/E534N/E542M/E548N/E725V/F14L/F29L/F525Y/F541I/F612A/F622V/F665L/F695L/G696N/G701T/H484Y/H528R/H728R/I36V/I481V/I486P/I490V/I510L/I518V/I595M/I60P/I617V/I643V/I645L/I692L/I695G/I706V/I740A/I803L/K30R/K476T/K504M/K555R/K565R/K626T/K714N/K818R/K827G/L17P/L471T/L521P/L560F/L571I/L578I/L610P/L631F/L636F/L639V/L684P/L688V/L702I/L734M/L735F/L800F/L823M/L825Q/M19T/M492I/M616G/M644L/M682V/M690V/M744T/M748V/N477Y/N52R/N540G/N541S/N547G/N58S/N63T/N675D/N721H/P545F/P561R/P564S/P61V/P638T/P824S/Q32K/Q472E/Q474R/Q479S/Q536L/Q53S/Q546K/Q550E/Q555R/Q56R/Q611L/Q676H/Q757R/Q795R/Q831P/R473T/R498S/R632Q/R667S/S22P/S45E/S501P/S547N/S550A/S576L/S595F/S610P/S628F/S635P/S637R/S663R/S670G/S679G/S681F/S703N/S717H/S727G/S784D/S804G/T46A/T50G/T529S/T542A/T549I/T609V/T629S/T642S/T663I/T694M/T705I/T706G/T716I/T813A/V508I/V512P/V557A/V573A/V584A/V585L/V613L/V617M/V673M/V687A/V691A/V694A/V718L/V718M/V723A/V729T/V738A/V741L/V774I/V791M/V805L/V812A/V821L/W599R/W676R/W824R/Y533F/Y615F/Y671F/Y680C/Y769S/Y783H/Y794L). Conditions: Table 4; genes h-mT471/T3mA (h-mT1R2-471, T1R3mA); HEK293E cells.
Method: The HEK293E cells maintained by using the DMEM/Ham's F-12 medium (Nakarai Tesque) containing 10% fetal bovine serum ([…]) and 1% Pen Strep (GIBCO) were washed with D-PBS(−) (Nakarai Tesque), and collected from the flask by using 0.25% Trypsin EDTA (GIBCO). The cells were centrifuged (1,200 rpm, 3 minutes), and after the supernatant was removed, suspended in 5% FBS DMEM/Ham's F-12 at a density of 0.75×10^7 cell/ml. This suspension (10 ml) was put into a […] (IWAKI), and culture was performed overnight (37° C., 5% CO2). On the next day, the medium was exchanged with Opti-MEM (30 ml, Invitrogen, Life Technologies), a sweet taste receptor gene mixture (Gα15-trans48LD gene, various kinds of T1R2 chimeric genes, and various kinds of T1R3 chimeric genes, 63.8 μg in total) prepared by using Opti-MEM and Lipofectamin 2000 (Invitrogen, Life Technologies) was slowly added to the cell suspension, and incubation was performed (37° C., 5% CO2) for 6 hours to attain gene transfer.
After the gene transfer, the cells were washed with D-PBS(−), then removed from the flask by using 0.25% Trypsin EDTA (GIBCO), and collected. After the cell number was counted, the cells were suspended in the 5% FBS DMEM medium (2.78 mM glucose, GIBCO) at a density of 0.5×10^6 cell/ml. This cell suspension was put into wells of D-Lysine coat 96-well plate (BD bioscience) in such a volume that the cell count is 7.0×10^4 cells/well, and the cells were cultured overnight.
After the culture, all the medium of the 96 wells were discarded. 200 μl of the staining solution for measurement of intracellular calcium ion′ Calcium Assay Kit Express (Molecular Device), diluted 80 times with an assay buffer (20 mM HEPES, 146 mM NaCl, 1 mM MgSO4, 1.39 mM glucose, 1 mM CaC12, 2.5 mM Probenecid, 0.05% bovine serum albumin) was added to each well, and the plate was left standing at 37° C. for 30 minutes and at room temperature for 45 minutes to perform staining. After the staining, 50 μl of a solution of stimulant (sweet taste substance) prepared with the assay buffer was added to each well, and the fluorescence value was measured for 120 seconds after the stimulation by using FDSSμEELL (Hamamatsu Photonics). By measuring the fluorescence value (Ex. 480 nm, Em. 540 nm) before and after the stimulation, the change of the intracellular free calcium ion concentration caused by addition of the stimulant via a sweet taste receptor was quantitatively investigated. The measurement and analysis of the fluorescence value was performed by using the software attached to FDSSμEELL (FDSS7000EX), and ΔF/F value was calculated in accordance with the following equation, and used for the evaluation. ΔF/F=(Maximum fluorescence value after stimulation−Minimum fluorescence value after stimulation)/(Fluorescence value before stimulation)
Furthermore, by using the ΔF/F values obtained when each sweet taste substance was added, the S/N ratio was calculated. Specifically, the S/N value was calculated by using the minimum value of ΔF/F obtained when each substance was added at various concentrations as noise (N) value, and the similarly obtained maximum value of ΔF/F as the signal (S) value, and used as an index for sensitivity of the measurement of the activity of each receptor. That is, a higher S/N value means a higher sensitivity for detection of an interaction of a sweet taste receptor and a test substance, which makes it easier to detect stimulation with a sweet taste substance or sweet taste-regulating substance of a lower concentration.
The sweet taste substances used as the stimulating substance are acesulfame potassium (Tokyo Kasei Kogyo), sodium saccharin (WAKO), sucralose (SIGMA), sucrose (WAKO), and neotame (SIGMA), as well as aspartame, advantame, and SC-45647 ([3-[(S)-1-phenylethyl]-2-(4-cyanophenyl)guanidino]acetic acid, which were all synthesized in-house.

Sequence of h-mT1R2-471/T1R3mosaicA (Q8TE23 with tags, fused parts or gaps with the stated changes limits assumed): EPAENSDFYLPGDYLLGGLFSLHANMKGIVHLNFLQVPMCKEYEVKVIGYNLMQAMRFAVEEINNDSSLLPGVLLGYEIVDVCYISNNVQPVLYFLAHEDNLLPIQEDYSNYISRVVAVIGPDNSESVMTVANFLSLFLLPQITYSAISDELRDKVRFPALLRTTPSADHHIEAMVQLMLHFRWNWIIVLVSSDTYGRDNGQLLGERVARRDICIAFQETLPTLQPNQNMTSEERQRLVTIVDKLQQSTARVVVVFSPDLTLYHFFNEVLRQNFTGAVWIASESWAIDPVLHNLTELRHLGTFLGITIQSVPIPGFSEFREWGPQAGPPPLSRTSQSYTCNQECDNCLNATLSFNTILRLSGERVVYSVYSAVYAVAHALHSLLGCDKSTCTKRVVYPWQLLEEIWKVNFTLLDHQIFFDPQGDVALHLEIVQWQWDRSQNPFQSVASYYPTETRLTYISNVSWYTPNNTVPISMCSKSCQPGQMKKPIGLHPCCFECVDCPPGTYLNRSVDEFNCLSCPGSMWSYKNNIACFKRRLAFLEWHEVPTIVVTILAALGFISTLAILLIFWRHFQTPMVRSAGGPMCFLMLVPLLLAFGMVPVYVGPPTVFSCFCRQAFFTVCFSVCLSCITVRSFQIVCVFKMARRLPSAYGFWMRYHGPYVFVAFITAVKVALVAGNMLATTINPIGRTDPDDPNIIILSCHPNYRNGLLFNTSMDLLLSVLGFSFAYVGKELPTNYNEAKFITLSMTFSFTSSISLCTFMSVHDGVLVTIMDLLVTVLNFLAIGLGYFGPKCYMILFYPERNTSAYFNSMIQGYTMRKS
Sequence of h-mT1R2-471/T1R3mosaicA (Q925D8 with tags, fused parts or gaps with the stated changes limits assumed): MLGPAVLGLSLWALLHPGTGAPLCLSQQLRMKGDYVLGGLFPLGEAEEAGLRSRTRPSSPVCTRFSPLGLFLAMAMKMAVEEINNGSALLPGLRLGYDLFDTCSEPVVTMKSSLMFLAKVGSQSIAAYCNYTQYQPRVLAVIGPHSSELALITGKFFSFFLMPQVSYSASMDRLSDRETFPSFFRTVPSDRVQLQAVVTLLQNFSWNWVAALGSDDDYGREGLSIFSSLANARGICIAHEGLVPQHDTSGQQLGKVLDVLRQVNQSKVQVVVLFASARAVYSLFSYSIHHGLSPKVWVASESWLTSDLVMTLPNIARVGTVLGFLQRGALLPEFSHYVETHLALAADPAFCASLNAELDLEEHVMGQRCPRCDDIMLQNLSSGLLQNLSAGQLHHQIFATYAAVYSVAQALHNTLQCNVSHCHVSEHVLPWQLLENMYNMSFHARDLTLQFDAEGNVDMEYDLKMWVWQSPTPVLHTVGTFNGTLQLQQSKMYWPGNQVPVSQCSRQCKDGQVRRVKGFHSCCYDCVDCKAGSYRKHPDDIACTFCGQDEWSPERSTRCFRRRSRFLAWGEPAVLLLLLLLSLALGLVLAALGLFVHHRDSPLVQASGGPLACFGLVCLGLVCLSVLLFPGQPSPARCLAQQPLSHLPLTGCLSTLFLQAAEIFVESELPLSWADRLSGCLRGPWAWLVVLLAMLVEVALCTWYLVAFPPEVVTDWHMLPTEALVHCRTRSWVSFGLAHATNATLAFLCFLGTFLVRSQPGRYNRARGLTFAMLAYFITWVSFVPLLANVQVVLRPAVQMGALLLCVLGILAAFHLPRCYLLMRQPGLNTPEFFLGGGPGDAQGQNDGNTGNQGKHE

SMILES	S/N
OC[C@H]1O[C@H](O[C@]2(CCl)O[C@H](CCl)[C@@H](O)[C@@H]2O)[C@H](O)[C@@H](O)[C@H]1Cl [Sucralose, sucralose]	7.1
C[C@H](NC(=Nc1ccc(C#N)cc1)NCC(=O)O)c1ccccc1 [SC-45647, [3-[(S)-1-phenylethyl]-2-(4-cyanophenyl)guanidino]acetic acid]	6.5
COC(=O)[C@H](Cc1ccccc1)NC(=O)[C@H](CC(=O)O)NCCCc1ccc(OC)c(O)c1 [Advantame, advantame]	10.0
COC(=O)[C@H](Cc1ccccc1)NC(=O)[C@H](CC(=O)O)NCCC(C)(C)C [Neotame, neotame]	8.3
COC(=O)[C@H](Cc1ccccc1)NC(=O)[C@@H](N)CC(=O)O [Aspartame, aspartame] (HELM PEPTIDE1{D.F.[CO[*:1]]}$$$$V2.0)	7.9
OC[C@H]1O[C@@](CO)(O[C@H]2O[C@H](CO)[C@@H](O)[C@H](O)[C@H]2O)[C@@H](O)[C@@H]1O [Sucrose, sucrose]	3.5
CC1=CC(=O)NS(=O)(=O)O1 [Acesulfame K, acesulfame potassium]	4.3
O=C1NS(=O)(=O)c2ccccc21.[Na] [Saccharin Na, sodium saccharin]	3.9
